According to ChEMBL document CHEMBL1141896, “Synthesis and structure-activity relationships of piperidinylpyrrolopyridine derivatives as potent and selective H1 antagonists” (Bioorg Med Chem Lett, 2005):

Experiments:
Histamine H1 receptor = Histamine H1 receptor (Cavia porcellus, UniProt P31389); experiment: Inhibitory concentration against histamine-H1 receptor
Rattus norvegicus [1] = species: Rattus norvegicus; experiment: Effective dose against Histamine-induced skin vascular permeability model in rat after 4 hr (n = 5); assay type: functional
[2] = molecular target: Serotonin 2 (5-HT2) receptor (Homo sapiens, UniProt P41595+P28223+P28335); experiment: Inhibitory concentration against 5-hydroxytryptamine 2 receptor; assay type: protein assay
Rattus norvegicus [3] = species: Rattus norvegicus; experiment: Effective dose against Histamine-induced skin vascular permeability model in rat after 8 hr (n = 5); assay type: functional
[4] = molecular target: Histamine H1 receptor (Mus musculus) (UniProt P70174); experiment: Ex vivo effective binding dose against histamine-H1 receptor (n = 3)
Histamine H1 receptor (Mus musculus), sequence (P70174 whole entry, looked up): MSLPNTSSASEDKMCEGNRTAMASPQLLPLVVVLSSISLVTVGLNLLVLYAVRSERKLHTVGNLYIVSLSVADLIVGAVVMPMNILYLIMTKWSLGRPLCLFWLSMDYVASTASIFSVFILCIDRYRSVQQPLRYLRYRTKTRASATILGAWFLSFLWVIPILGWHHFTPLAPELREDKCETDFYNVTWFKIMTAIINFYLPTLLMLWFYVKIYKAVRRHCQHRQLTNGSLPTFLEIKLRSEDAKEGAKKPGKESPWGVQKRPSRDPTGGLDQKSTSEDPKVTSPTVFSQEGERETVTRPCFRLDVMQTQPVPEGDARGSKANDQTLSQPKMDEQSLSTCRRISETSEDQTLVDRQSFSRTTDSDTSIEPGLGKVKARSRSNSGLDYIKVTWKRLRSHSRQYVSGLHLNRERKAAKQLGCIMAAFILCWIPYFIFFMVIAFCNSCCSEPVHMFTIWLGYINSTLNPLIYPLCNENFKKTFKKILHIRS

[5] = molecular target: T1, Adrenergic receptor alpha-1 (Rattus norvegicus, UniProt P15823+P23944+P43140); experiment: Binding affinity towards Alpha-1 adrenergic receptor in rat brain using [3H]prazosin as radioligand; assay type: tissue-based
T1 sequence (P15823 whole entry): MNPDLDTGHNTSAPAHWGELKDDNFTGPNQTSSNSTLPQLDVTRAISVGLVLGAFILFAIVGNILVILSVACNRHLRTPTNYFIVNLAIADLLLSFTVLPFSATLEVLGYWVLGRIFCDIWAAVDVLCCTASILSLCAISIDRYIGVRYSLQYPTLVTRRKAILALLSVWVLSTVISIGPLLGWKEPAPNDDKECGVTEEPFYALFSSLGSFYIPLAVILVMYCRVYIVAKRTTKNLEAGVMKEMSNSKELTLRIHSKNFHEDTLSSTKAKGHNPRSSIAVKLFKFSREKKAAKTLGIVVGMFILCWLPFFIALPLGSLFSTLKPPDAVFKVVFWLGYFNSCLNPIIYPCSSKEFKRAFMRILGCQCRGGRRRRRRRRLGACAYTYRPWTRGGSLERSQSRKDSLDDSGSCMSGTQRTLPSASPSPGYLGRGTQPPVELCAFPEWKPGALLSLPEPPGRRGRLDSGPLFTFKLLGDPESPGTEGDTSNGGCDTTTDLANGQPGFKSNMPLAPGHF
T1 sequence (P23944 whole entry): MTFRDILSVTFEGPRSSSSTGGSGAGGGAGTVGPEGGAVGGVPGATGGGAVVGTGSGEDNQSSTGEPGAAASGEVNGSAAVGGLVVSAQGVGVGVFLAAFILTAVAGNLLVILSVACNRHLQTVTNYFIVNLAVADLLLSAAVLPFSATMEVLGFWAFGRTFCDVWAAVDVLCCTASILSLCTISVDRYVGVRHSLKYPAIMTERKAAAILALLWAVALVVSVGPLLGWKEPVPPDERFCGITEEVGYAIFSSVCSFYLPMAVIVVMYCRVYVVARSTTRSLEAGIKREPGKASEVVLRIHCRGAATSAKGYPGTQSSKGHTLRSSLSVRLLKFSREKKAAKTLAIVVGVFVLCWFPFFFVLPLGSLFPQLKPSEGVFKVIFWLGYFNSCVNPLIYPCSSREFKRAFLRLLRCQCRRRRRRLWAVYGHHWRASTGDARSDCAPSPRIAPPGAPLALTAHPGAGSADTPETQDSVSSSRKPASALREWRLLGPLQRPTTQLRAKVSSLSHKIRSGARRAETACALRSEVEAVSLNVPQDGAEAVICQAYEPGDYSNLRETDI
T1 sequence (P43140 whole entry): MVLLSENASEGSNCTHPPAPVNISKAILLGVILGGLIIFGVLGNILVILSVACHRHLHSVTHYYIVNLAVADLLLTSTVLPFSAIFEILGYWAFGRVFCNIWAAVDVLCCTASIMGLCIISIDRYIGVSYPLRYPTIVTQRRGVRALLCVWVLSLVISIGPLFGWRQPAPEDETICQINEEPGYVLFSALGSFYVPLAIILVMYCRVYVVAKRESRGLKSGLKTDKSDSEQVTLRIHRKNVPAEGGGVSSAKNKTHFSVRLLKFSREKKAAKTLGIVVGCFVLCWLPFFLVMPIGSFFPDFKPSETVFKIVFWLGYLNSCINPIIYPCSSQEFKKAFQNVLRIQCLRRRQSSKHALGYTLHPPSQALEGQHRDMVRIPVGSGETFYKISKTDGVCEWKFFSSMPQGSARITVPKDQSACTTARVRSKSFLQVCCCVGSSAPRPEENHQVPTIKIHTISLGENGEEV

Rattus norvegicus [6] = experiment: Inhibition of Histamine-induced skin vascular permeability model in rat after 4 hr at 1 mg/Kg (n = 5); assay type: functional

Histamine H1 receptor, sequence (P31389 whole entry): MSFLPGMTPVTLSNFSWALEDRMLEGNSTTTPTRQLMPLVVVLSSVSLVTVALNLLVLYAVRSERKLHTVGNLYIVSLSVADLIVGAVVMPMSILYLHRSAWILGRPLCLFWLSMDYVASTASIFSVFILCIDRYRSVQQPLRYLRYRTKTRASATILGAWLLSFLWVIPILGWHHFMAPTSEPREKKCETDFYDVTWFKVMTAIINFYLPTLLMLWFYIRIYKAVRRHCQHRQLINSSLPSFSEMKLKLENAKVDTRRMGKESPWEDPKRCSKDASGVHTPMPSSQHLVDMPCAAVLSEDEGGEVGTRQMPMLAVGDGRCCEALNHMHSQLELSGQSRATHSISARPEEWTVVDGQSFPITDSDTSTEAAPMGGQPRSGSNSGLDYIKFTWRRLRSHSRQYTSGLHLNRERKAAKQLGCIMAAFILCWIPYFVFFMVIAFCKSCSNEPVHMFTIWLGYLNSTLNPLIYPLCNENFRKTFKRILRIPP

CCOCCn1cc(C2CCN(CCOc3ccccc3C=O)CC2)c2ccccc21
IC50 (Histamine H1 receptor): 86 nM
ED50 (Rattus norvegicus [1]): 0.1 mg/kg
IC50 [2]: 3272 nM
ED50 (Rattus norvegicus [3]): 0.22 mg/kg
ED50 [4]: 8 mg/kg
IC50 [5]: 10000 nM

O=C(O)c1cccc(CN2CCC(c3cn(Cc4ccoc4)c4ccccc34)CC2)c1
IC50 (Histamine H1 receptor): 560 nM
ED50 (Rattus norvegicus [1]): 1 mg/kg
IC50 [2]: 10000 nM
IC50 [5]: > 10000 nM

COc1ccc(CN2CCC(c3cn(Cc4ccoc4)c4ccccc34)CC2)cc1C(=O)O
IC50 (Histamine H1 receptor): 205 nM
ED50 (Rattus norvegicus [1]): 0.2 mg/kg
IC50 [2]: 10000 nM
ED50 (Rattus norvegicus [3]): 0.2 mg/kg
ED50 [4]: 15 mg/kg
IC50 [5]: > 10000 nM

CCOCCn1cc(C2CCN(Cc3cccc(C(=O)O)c3)CC2)c2ccccc21
IC50 (Histamine H1 receptor): 403 nM
ED50 (Rattus norvegicus [1]): 0.07 mg/kg
IC50 [2]: 4950 nM
ED50 (Rattus norvegicus [3]): 0.45 mg/kg
ED50 [4]: 16 mg/kg
IC50 [5]: > 10000 nM

COc1ccc(CN2CCC(c3cn(Cc4ccc(Cl)s4)c4ccccc34)CC2)cc1C(=O)O
IC50 (Histamine H1 receptor): 365 nM
ED50 (Rattus norvegicus [1]): 0.5 mg/kg
IC50 [2]: 10000 nM
ED50 (Rattus norvegicus [3]): 0.7 mg/kg
ED50 [4]: 57 mg/kg
IC50 [5]: > 10000 nM

CCCCn1cc(C2CCN(Cc3ccc(OC)c(C(=O)O)c3)CC2)c2ccccc21
IC50 (Histamine H1 receptor): 475 nM
ED50 (Rattus norvegicus [1]): 0.08 mg/kg
IC50 [2]: > 10000 nM
ED50 (Rattus norvegicus [3]): 0.13 mg/kg
ED50 [4]: 69 mg/kg
IC50 [5]: > 10000 nM

CCOCCn1cc(C2CCN(CCOc3ccccc3C(=O)O)CC2)c2ccccc21
IC50 (Histamine H1 receptor): 190 nM
ED50 (Rattus norvegicus [1]): 0.08 mg/kg
IC50 [2]: > 10000 nM
ED50 (Rattus norvegicus [3]): 0.02 mg/kg
ED50 [4]: 34 mg/kg
IC50 [5]: > 10000 nM

CCOCCn1cc(C2CCN(Cc3ccc(OC)c(C(=O)O)c3)CC2)c2ccccc21
IC50 (Histamine H1 receptor): 690 nM
ED50 (Rattus norvegicus [1]): 0.05 mg/kg
IC50 [2]: 10000 nM
ED50 [4]: 5.4 mg/kg
IC50 [5]: > 10000 nM

CCCCn1cc(C2CCN(Cc3cccc(C(=O)O)c3)CC2)c2ccccc21
IC50 (Histamine H1 receptor): 275 nM
ED50 (Rattus norvegicus [1]): 1 mg/kg
IC50 [2]: > 10000 nM
IC50 [5]: > 10000 nM

O=C(O)c1cccc(CN2CCC(c3cn(Cc4ccc(Cl)s4)c4ccccc34)CC2)c1
IC50 (Histamine H1 receptor): 330 nM
IC50 [2]: > 10000 nM
inhibition in vivo at 1 mg/kg (Rattus norvegicus [6]): 7%
IC50 [5]: > 10000 nM
